These results are taken from patent US12662674B2, “RNA nanoparticle for liver cancer treatment” (OHIO STATE INNOVATION FOUNDATION, priority 2019, dated 2026).

The data set concerns HepG2 cells. The experiment in a line: HSA synergy modeling of cell viability. As to conditions: HSA model, Combenefit; FIG. 17C: 6WJ/HTL/miR122 and 6WJ/HTL/PTX nanoparticles.

From the text: To study the synergy between miR122 and PTX in cytotoxicity induction, an MTT cell viability assay was first performed. […] Cell viability was used as an indicator to quantify the correlation of synergy between miR122 and PTX using Highest Single Agent (HSA) synergy modeling. The data was processed and quantified using Combenefit software to obtain the HSA synergy score between miR122 and PTX (FIG. 17C). […] The number represented the co-efficiency of synergy.
Cell viability was studied following MTT protocol in cytotoxicity assay. The result was presented by Prism 8.0 (Graph Pad). The viability result was entered into HSA synergy modeling by Combenefit and plotted by Prism 8.0.

Consider `CC(=O)O[C@H]1C(=O)[C@@]2(C)[C@H]([C@H](OC(=O)c3ccccc3)[C@]3(O)C[C@H](OC(=O)[C@H](O)[C@@H](NC(=O)c4ccccc4)c4ccccc4)C(C)=C1C3(C)C)[C@]1(OC(C)=O)CO[C@@H]1C[C@@H]2O` [PTX, Paclitaxel], for which the “concentration of highest synergy in cytotoxic induction” value is 3.2 µM.
